Measured values as given in the supplement of paper PMC10307832.

Experiments:
Assay in all cases: relative viability (nuclei count vs DMSO), 5 days (fraction); higher = more cells survive
[1] = compound: C=CC(=O)Nc1cc(-n2c(=O)ccc3cnc4ccc(-c5ccc(NS(C)(=O)=O)cc5)cc4c32)ccc1C [BMX-IN-1] + Cc1cc(Nc2cc(N3CCN(C)CC3)nc(Sc3ccc(NC(=O)C4CC4)cc3)n2)n[nH]1 [Tozasertib] (partner 0.1 µM)
Method in brief: (§1)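 Values are medians from duplicate plates. Each reflects relative viability, defined as the nuclei count of treated wells over that of vehicle wells. Lung cancer cell lines in 1536-well plates were pin-tool dosed one day after seeding with one drug alone or with a fixed anchor-drug dose plus five library-drug doses (not always all listed) in √10 steps, then fixed, stained and imaged at 4× after 5 days.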

[2] = compound: C=CC(=O)N1CCC[C@@H](n2nc(-c3ccc(Oc4ccccc4)cc3)c3c(N)ncnc32)C1 [Ibrutinib] + Cc1nc(NC(=O)N2CCC[C@H]2C(N)=O)sc1-c1ccnc(C(C)(C)C(F)(F)F)c1 [Alpelisib] (partner 2 µM)
Method in brief: as §1

[3] = compound: C=CCc1cccc(/C=N/NC(=O)CN2CCN(Cc3ccccc3)CC2)c1O [PAC-1] + NC(=O)Nc1cc(-c2cccc(F)c2)sc1C(=O)N[C@H]1CCCNC1 [AZD7762] (partner 0.2 µM)
Method in brief: as §1

[4] = compound: C=CCc1cccc(/C=N/NC(=O)CN2CCN(Cc3ccccc3)CC2)c1O [PAC-1] + CC1(C)CCC(c2ccc(Cl)cc2)=C(CN2CCN(c3ccc(C(=O)NS(=O)(=O)c4ccc(N[C@H](CCN5CCOCC5)CSc5ccccc5)c(S(=O)(=O)C(F)(F)F)c4)cc3)CC2)C1 [Navitoclax] (partner 0.5 µM)
Method in brief: as §1

| Cell Line | relative viability ([1]; first compound 0.02 µM) | relative viability ([1]; first compound 0.2 µM) | relative viability ([1]; first compound 0.6325 µM) | relative viability ([1]; first compound 2 µM) | relative viability ([2]; first compound 0.005 µM) | relative viability ([2]; first compound 0.05 µM) | relative viability ([2]; first compound 0.5 µM) | relative viability ([3]; first compound 0.02 µM) | relative viability ([3]; first compound 0.06325 µM) | relative viability ([3]; first compound 0.2 µM) | relative viability ([3]; first compound 2 µM) | relative viability ([4]; first compound 0.02 µM) | relative viability ([4]; first compound 0.06325 µM) | relative viability ([4]; first compound 0.2 µM) | relative viability ([4]; first compound 2 µM) | relative viability ([2]; first compound 0.01581 µM) | relative viability ([2]; first compound 0.1581 µM) |
| --- | --- | --- | --- | --- | --- | --- | --- | --- | --- | --- | --- | --- | --- | --- | --- | --- | --- |
| NCI-H2087 | 0.244 | 0.24 | 0.344 | 0.263 | 1.09 | 1.19 | 1.19 | 1.36 | 1.4 | 1.09 | 1.44 | 1.15 | 0.991 | 0.965 | 0.998 |  |  |
| BEN | 0.58 | 0.498 | 0.52 | 0.507 | 0.785 | 0.944 | 1.06 | 0.712 | 0.626 | 0.618 | 0.828 | 0.0891 | 0.0706 | 0.0845 | 0.0674 | 0.906 | 0.891 |
| NCI-H1755 | 0.493 | 0.578 | 0.577 | 0.519 | 0.939 | 1.03 | 0.932 | 0.45 | 0.45 | 0.426 | 0.415 | 0.959 | 0.954 | 0.986 | 0.989 | 0.893 | 0.981 |
| NCI-H1666 | 0.595 | 0.57 | 0.624 | 0.593 | 0.677 |  | 0.426 | 0.905 | 0.816 | 0.896 | 0.809 | 1.14 | 0.915 | 0.933 | 1.04 | 0.726 | 1.11 |
| NCI-H23 | 0.331 | 0.367 | 0.586 | 0.34 | 0.514 | 0.566 | 0.6 | 0.242 | 0.349 | 0.244 | 0.314 | 0.569 | 0.891 | 0.793 | 0.881 | 0.695 | 0.76 |
| PC-14 | 0.672 | 0.658 | 0.605 | 0.571 | 0.974 | 0.909 | 0.632 | 0.382 | 0.322 | 0.45 | 0.343 | 0.968 | 0.975 | 0.959 | 1.03 | 0.954 | 1.05 |
| LCLC-97TM1 | 0.203 | 0.274 | 0.289 | 0.203 | 0.241 | 0.335 | 0.255 | 0.211 | 0.267 | 0.23 | 0.345 |  | 0.395 | 0.307 | 0.62 | 0.3 | 0.269 |
| HOP-62 | 0.431 | 0.413 | 0.388 | 0.373 | 0.638 | 1.02 | 0.918 | 0.822 | 0.623 | 0.577 | 0.515 | 1.04 | 1.02 | 0.58 | 0.988 | 0.954 | 1.2 |
| NCI-H727 | 0.691 | 0.646 | 0.572 | 0.597 | 0.519 | 0.433 | 0.435 | 0.547 | 0.615 | 0.671 | 0.711 | 0.425 | 0.452 | 0.352 | 0.42 | 0.556 | 0.576 |
| NCI-H1734 | 0.292 | 0.285 | 0.256 | 0.229 | 0.557 | 0.705 | 0.654 | 0.515 | 0.615 | 0.532 | 0.546 | 0.826 | 0.832 | 0.813 | 0.881 | 0.583 | 0.669 |
| NCI-H1651 | 0.848 | 1 | 0.735 | 0.731 | 0.903 | 0.995 | 1.1 | 0.44 | 0.358 | 0.447 | 0.467 | 0.924 | 1.12 | 1.06 | 1.09 | 0.938 | 0.935 |
| NCI-H2170 | 0.771 | 0.779 | 0.625 | 0.777 | 0.728 | 0.278 | 0.231 | 0.874 | 0.856 | 0.928 | 0.846 | 0.637 | 0.622 | 0.569 | 0.461 | 0.362 | 0.773 |
| LK-2 | 0.223 | 0.173 | 0.161 | 0.184 |  | 1.36 | 0.89 | 0.488 | 0.315 | 0.327 | 0.416 | 0.816 | 0.805 | 0.88 | 0.845 | 0.837 | 0.938 |
| NCI-H2347 | 0.518 | 0.471 | 0.585 | 0.537 | 1 | 0.933 | 1.12 | 0.825 | 0.756 | 0.675 | 0.902 | 0.817 | 0.871 | 0.698 | 0.865 | 1.1 | 1.01 |
| NCI-H460 | 0.525 | 0.796 | 0.531 | 0.569 | 0.5 | 0.496 | 0.538 | 0.548 | 0.674 | 0.602 | 0.656 | 1.1 | 1.14 | 0.922 | 1.09 | 0.319 | 0.536 |
| LC-2-ad | 0.408 | 0.501 | 0.394 | 0.214 | 0.874 | 0.936 | 0.758 | 0.76 | 0.868 | 0.859 | 0.902 | 0.464 | 0.427 | 0.35 | 0.331 | 0.944 | 0.836 |

| Cell Line | relative viability ([1]; first compound 0.02 µM) | relative viability ([1]; first compound 0.2 µM) | relative viability ([1]; first compound 0.6325 µM) | relative viability ([1]; first compound 2 µM) | relative viability ([2]; first compound 0.005 µM) | relative viability ([2]; first compound 0.05 µM) | relative viability ([2]; first compound 0.5 µM) | relative viability ([3]; first compound 0.02 µM) | relative viability ([3]; first compound 0.06325 µM) | relative viability ([3]; first compound 0.2 µM) | relative viability ([3]; first compound 2 µM) | relative viability ([4]; first compound 0.02 µM) | relative viability ([4]; first compound 0.06325 µM) | relative viability ([4]; first compound 0.2 µM) | relative viability ([4]; first compound 2 µM) | relative viability ([2]; first compound 0.01581 µM) | relative viability ([2]; first compound 0.1581 µM) |
| --- | --- | --- | --- | --- | --- | --- | --- | --- | --- | --- | --- | --- | --- | --- | --- | --- | --- |
| NCI-H596 | 1.07 | 0.932 | 0.819 | 0.959 | 0.482 | 0.51 | 0.479 | 1.11 | 1.2 | 1.09 | 1.13 | 0.887 | 0.932 | 0.951 | 0.951 | 0.503 | 0.503 |
| A-427 | 0.183 | 0.182 | 0.21 | 0.2 | 1.06 | 1.11 | 1.14 | 0.774 | 0.734 | 0.713 | 0.702 | 1 | 0.92 | 0.908 | 0.907 | 1.08 | 1.09 |
| HCC-44 | 1.27 | 0.92 | 0.861 | 0.725 | 0.864 | 0.874 | 0.724 | 1.09 | 0.998 | 1.03 | 0.992 | 1.01 | 0.977 | 0.978 | 1.01 | 0.658 | 0.87 |
| HCC-827 | 0.524 | 0.434 | 0.415 | 0.442 | 0.952 | 0.901 | 0.278 | 0.239 | 0.191 | 0.235 | 0.237 | 1.04 | 0.986 | 0.983 | 0.989 | 0.819 | 0.992 |
| NCI-H1915 | 0.438 | 0.586 | 0.504 | 0.445 |  | 1.06 | 1.05 | 0.724 | 0.681 | 0.546 | 0.695 | 0.449 | 0.794 | 0.751 | 0.767 | 1 | 1.07 |
| NCI-H322M | 0.514 | 0.548 | 0.475 | 0.401 | 0.752 | 0.779 | 0.486 | 0.573 | 0.618 | 0.706 | 0.584 | 1.23 | 1.27 | 1.28 | 1.23 | 0.807 | 0.838 |
| EKVX | 0.519 | 0.468 | 0.445 | 0.383 |  | 0.829 | 0.562 | 0.638 | 0.75 | 0.664 | 0.62 | 1.07 | 0.926 | 0.86 | 0.979 | 0.776 | 0.799 |
| EMC-BAC-2 | 0.286 | 0.287 | 0.289 | 0.274 | 0.728 | 0.75 | 0.547 | 1.13 | 1.24 | 1.19 | 1.15 | 1.14 | 1.22 | 1.19 | 1.14 | 0.697 | 0.741 |
| HCC-15 | 0.449 | 0.53 | 0.531 | 0.398 | 0.956 | 0.99 | 0.851 | 1.34 | 1.35 | 0.884 | 1.35 | 0.735 | 0.685 | 0.676 | 0.74 | 0.867 | 0.853 |
| LXF-289 | 0.212 | 0.197 | 0.187 | 0.146 |  |  | 0.908 | 1.09 | 1.11 | 0.987 | 1.08 | 0.944 | 0.948 | 0.932 | 0.927 | 1.03 |  |
| NCI-H1395 | 0.832 | 0.793 | 0.701 | 0.715 | 0.997 | 1.35 | 0.997 | 0.427 | 0.415 | 0.352 | 0.381 | 1.21 | 1.16 | 1.32 | 1.32 | 0.988 | 1.16 |
| NCI-H838 | 0.322 | 0.318 | 0.279 | 0.313 | 0.836 | 1.14 | 0.987 | 0.972 | 0.964 | 0.936 | 0.925 | 1.08 | 1.12 | 1.08 | 1.21 | 1 | 1.01 |
| 201T | 1.17 | 0.997 | 0.953 | 0.896 |  | 1.03 | 0.938 | 0.625 | 0.59 | 0.571 | 0.567 | 1.21 | 1.23 | 1.21 | 1.16 | 0.97 | 1 |
| NCI-H1437 | 0.497 | 0.43 | 0.38 | 0.414 | 0.958 | 1.01 | 1.03 | 1.11 | 1.09 | 1.12 | 0.844 | 1.04 | 1.12 | 1.01 | 0.775 | 0.937 | 0.988 |
| NCI-H1975 | 0.958 | 1.1 | 0.792 | 0.695 | 0.594 | 0.475 | 0.212 | 0.669 | 0.666 | 0.755 | 0.698 | 1.12 | 1.2 | 1.12 | 1.06 | 0.418 | 0.634 |
| RERF-LC-KJ | 0.566 | 0.642 | 0.472 | 0.435 | 0.526 | 0.791 | 0.585 | 1.08 | 0.883 | 0.934 | 1.01 | 0.859 | 0.932 | 1.11 | 0.733 | 0.731 | 0.638 |
